These results are taken from paper PMC8468039, “Development of New Meridianin/Leucettine-Derived Hybrid Small Molecules as Nanomolar Multi-Kinase Inhibitors with Antitumor Activity” (Biomedicines, 2021).

Experiment in all cases: In vitro kinase inhibition assay (HotSpot, Reaction Biology)
What all share (type): biochemical

The target in one assay is T1, BRAF (Homo sapiens, UniProt P15056).
T1 construct: purchased Reaction Biology Corp
The following applies: single dose of 10 µM; 10 µM ATP as printed; read-out: Percent Inhibition, BRAF.

The target in another assay is T2, EGFR (Homo sapiens, UniProt P00533).
T2 construct: purchased Reaction Biology Corp
T2 sequence (P00533 25-1210): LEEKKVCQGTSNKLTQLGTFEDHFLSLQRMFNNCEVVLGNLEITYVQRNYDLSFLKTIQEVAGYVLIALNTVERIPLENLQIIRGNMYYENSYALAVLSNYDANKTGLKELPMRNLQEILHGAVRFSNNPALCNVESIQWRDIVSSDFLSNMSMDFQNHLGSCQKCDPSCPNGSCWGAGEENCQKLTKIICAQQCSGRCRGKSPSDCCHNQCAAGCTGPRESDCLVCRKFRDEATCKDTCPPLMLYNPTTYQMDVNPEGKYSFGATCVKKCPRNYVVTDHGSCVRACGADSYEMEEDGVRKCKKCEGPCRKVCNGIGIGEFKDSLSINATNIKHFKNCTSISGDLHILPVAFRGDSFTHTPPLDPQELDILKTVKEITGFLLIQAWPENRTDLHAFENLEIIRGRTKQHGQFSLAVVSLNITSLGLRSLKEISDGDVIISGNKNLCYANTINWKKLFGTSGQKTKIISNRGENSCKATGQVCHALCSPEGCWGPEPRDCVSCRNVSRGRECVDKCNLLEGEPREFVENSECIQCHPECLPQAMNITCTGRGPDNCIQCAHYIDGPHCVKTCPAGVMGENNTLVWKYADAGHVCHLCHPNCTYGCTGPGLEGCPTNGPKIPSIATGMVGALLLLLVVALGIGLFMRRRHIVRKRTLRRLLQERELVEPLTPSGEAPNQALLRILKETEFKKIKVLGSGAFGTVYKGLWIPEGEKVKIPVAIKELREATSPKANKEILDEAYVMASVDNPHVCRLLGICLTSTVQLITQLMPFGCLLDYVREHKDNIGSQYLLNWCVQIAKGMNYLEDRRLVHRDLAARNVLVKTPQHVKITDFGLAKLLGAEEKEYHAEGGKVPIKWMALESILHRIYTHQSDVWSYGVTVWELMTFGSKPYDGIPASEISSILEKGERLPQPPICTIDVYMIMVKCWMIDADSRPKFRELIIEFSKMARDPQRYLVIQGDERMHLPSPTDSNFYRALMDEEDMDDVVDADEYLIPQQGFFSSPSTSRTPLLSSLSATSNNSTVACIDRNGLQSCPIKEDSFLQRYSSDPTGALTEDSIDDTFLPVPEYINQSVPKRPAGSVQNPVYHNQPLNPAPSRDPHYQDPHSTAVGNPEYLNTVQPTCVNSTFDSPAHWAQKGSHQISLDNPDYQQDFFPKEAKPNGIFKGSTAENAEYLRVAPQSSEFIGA
The following applies: single dose of 10 µM; 10 µM ATP as printed; read-out: Percent Inhibition, EGFR.

The target of another assay is T3, JAK3 (Homo sapiens, UniProt P52333).
T3 construct: purchased Reaction Biology Corp
T3 sequence (P52333 whole entry): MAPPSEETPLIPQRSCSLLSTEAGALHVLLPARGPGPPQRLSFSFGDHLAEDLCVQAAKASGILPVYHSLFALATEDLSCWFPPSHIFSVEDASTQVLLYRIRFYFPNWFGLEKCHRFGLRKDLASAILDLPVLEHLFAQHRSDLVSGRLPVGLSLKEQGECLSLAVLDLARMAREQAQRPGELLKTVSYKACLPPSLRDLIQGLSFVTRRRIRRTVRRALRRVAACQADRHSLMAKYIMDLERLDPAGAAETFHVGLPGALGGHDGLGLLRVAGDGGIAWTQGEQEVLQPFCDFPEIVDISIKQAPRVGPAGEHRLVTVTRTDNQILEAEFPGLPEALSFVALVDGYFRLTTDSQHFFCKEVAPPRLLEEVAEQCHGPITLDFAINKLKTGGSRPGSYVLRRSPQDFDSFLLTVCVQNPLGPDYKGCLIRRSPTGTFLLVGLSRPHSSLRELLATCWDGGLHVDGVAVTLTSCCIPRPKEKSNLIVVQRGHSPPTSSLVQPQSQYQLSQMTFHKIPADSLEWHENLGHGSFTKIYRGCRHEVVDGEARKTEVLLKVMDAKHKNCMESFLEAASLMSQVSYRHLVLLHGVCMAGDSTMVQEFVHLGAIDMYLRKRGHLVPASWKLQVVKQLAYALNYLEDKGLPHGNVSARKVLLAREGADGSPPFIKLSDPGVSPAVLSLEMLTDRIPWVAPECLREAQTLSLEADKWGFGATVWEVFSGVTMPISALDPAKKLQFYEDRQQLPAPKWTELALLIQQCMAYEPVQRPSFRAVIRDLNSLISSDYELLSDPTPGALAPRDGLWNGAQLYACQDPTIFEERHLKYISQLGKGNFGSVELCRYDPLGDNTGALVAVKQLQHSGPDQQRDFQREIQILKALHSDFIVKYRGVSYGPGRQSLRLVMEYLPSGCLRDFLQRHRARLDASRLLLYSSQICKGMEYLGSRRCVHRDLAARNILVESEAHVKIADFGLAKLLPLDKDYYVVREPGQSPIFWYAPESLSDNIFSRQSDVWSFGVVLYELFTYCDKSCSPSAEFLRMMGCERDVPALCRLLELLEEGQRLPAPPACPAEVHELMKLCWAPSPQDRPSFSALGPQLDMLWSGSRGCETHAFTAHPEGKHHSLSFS
The following applies: single dose of 10 µM; read-out: Percent Inhibition, JAK3.

The next assay concerns the target T4, c-MER (Homo sapiens, UniProt Q12866).
T4 construct: purchased Reaction Biology Corp
The following applies: single dose of 10 µM; 10 µM ATP as printed; read-out: Percent Inhibition, c-MER.

T4 sequence (Q12866 21-999): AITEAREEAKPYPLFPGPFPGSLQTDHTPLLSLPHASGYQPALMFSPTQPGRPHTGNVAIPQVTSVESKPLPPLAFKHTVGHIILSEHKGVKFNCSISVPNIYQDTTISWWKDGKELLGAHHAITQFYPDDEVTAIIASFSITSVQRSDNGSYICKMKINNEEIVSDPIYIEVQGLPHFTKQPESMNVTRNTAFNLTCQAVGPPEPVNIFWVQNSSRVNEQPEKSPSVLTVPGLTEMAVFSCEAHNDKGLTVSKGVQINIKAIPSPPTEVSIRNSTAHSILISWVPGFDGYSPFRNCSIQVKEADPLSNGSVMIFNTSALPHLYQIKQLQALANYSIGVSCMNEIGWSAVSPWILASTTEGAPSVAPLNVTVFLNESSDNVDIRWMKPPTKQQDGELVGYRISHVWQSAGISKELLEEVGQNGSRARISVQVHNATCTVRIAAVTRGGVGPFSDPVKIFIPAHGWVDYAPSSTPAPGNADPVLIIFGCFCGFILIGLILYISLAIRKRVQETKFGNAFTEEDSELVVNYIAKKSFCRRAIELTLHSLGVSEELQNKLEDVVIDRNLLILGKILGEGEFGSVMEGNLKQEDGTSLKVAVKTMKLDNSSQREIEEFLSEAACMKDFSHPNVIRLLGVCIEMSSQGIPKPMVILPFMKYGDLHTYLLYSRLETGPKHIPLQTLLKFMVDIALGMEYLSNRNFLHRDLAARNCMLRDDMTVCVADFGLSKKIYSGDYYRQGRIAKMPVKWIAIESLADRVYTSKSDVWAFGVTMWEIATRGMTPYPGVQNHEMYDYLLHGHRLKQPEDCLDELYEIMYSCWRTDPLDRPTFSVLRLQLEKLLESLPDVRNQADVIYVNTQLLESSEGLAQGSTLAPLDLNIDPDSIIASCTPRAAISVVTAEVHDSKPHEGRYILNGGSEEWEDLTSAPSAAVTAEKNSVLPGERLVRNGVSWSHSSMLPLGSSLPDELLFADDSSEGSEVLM
T1 sequence (P15056 whole entry): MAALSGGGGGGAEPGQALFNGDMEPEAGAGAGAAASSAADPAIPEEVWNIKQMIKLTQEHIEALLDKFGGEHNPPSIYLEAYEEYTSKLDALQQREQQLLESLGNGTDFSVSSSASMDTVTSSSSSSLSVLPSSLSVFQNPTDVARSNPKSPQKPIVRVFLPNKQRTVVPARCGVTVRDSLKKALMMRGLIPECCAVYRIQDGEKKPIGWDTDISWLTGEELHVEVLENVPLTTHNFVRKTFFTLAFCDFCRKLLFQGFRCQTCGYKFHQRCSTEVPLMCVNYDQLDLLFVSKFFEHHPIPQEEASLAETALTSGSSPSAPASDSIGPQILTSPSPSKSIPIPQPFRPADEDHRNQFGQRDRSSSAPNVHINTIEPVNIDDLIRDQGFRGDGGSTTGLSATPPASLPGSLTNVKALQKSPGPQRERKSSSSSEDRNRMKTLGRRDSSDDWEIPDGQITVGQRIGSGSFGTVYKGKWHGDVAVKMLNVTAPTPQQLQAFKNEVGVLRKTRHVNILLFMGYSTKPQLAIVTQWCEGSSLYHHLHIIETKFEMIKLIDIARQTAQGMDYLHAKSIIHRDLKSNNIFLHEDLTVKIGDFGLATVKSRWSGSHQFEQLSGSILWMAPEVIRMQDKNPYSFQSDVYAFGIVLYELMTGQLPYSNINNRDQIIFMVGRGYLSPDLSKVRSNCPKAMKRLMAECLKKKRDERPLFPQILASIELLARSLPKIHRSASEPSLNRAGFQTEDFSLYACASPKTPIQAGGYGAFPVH

The term inhibition denotes the share of the control response that was lost under treatment. `COc1ccc(Oc2nc(Nc3ccc(N4CCOCC4)cc3)ncc2NC(=O)c2ccc3c(c2)OCO3)cc1` [5a, N-(4-(4-Methoxyphenoxy)-2-((4-morpholinophenyl)amino)pyrimidin-5-yl)benzo[d][1,3]dioxole-5-carboxamide]: the inhibition at 10 µM on BRAF is 4.1 ± 10.5%; on EGFR, 27 ± 0.9%; on JAK3, 11.2 ± 1.2%; on c-MER it was 4.4 ± 0.1%.
